Laboratory results from ChEMBL document CHEMBL3507680, “University of Dundee, Gates Library screen for HepG2 cell viability”.

Assay: Human HepG2 cell viability assay in 384 well format
Type: toxicity, cell-based
Set-up: dose 125 nL, time 70.5 hour; cytotoxicity at 70.5 h: concentration not given beside the values
Settings: HepG2 cells, read-out: Inhibition

## O=c1cccnn1CC1CN(c2ncc(F)cn2)Cc2nccn2C1 (stereo not drawn)
  cytotoxicity at 70.5 h: -10.5%

## O=C(CC1CC1)N1Cc2nccn2CC(Cn2ncccc2=O)C1 (stereo not drawn)
  cytotoxicity at 70.5 h: -6.18%

## Cc1ccc(C(=O)N2CCc3ncc(Cn4cccn4)n3CC2)o1
  cytotoxicity at 70.5 h: -3.58%

## CC(=O)NCC(=O)N1CCC2(CC1)NC(=O)CC2c1cnn(C)c1 (stereo not drawn)
  cytotoxicity at 70.5 h: -8.17%

## C1CC(CN2C[C@@H]3C[C@@H](c4nnc(C5CC5)o4)O[C@@H]3C2)CCO1
  cytotoxicity at 70.5 h: -7.69%

## O=C(NC1CCCC1)c1cc2c(s1)CCN2C(=O)c1ccccc1
  cytotoxicity at 70.5 h: 0.186%

## COCCN1CCCc2sc(C(=O)NCC3CCCO3)nc21 (stereo not drawn)
  cytotoxicity at 70.5 h: 31.2%

## COCCN1Cc2ccccc2C2(CCN(C(=O)c3ccco3)CC2)C1
  cytotoxicity at 70.5 h: 1.21%

## O=C(NCC1CCCO1)c1nc2c(s1)CCCN2Cc1ccccc1 (stereo not drawn)
  cytotoxicity at 70.5 h: -4.02%

## CNC(=O)[C@H]1C[C@@H]2CN(C(=O)c3ccoc3)C[C@@H]2N1S(C)(=O)=O
  cytotoxicity at 70.5 h: -12%

## CNC(=O)[C@H]1C[C@@H]2CN(C(=O)c3ccc(C)o3)C[C@@H]2N1S(C)(=O)=O
  cytotoxicity at 70.5 h: -9.33%

## CC1c2ncc(Cn3cncn3)n2CCN1C(=O)[C@H]1CCCO1 (stereo partly drawn)
  cytotoxicity at 70.5 h: -8.44%

## Cn1cc(CN2CCC3(CC2)CN(C(=O)c2cnccn2)CCO3)cn1
  cytotoxicity at 70.5 h: -4.88%

## O=C(C1CCOC1)N1CCN(Cc2cccnc2)c2ncccc2C1 (stereo not drawn)
  cytotoxicity at 70.5 h: -7.36%

## CC1c2ncc(Cn3cncn3)n2CCN1C(=O)c1ccsc1 (stereo not drawn)
  cytotoxicity at 70.5 h: -4.72%

## CC1c2ncc(Cn3cncn3)n2CCN1C(=O)c1ccccn1 (stereo not drawn)
  cytotoxicity at 70.5 h: 31.8%

## CN(C)C(=O)N1C[C@@H](C(=O)NCc2ccco2)C[C@H]2OCC[C@H]21
  cytotoxicity at 70.5 h: -4.06%

## CCOCC1CN(C(=O)c2ccnnc2)Cc2cnn(C)c21 (stereo not drawn)
  cytotoxicity at 70.5 h: -4.89%

## O=C(N1CCCC1)N1CCOCC2(C1)CN(c1ccccc1)C(=O)CO2 (stereo not drawn)
  cytotoxicity at 70.5 h: -3.56%

## O=C(c1cccs1)N1CCOCC2(C1)CN(c1ccccc1)C(=O)CO2 (stereo not drawn)
  cytotoxicity at 70.5 h: -9.8%

## CC(C)Nc1nc(N2CCCC2)nc2c1CN(C)CC2
  cytotoxicity at 70.5 h: -9.83%

## COCC(=O)N1CCC2(C1)c1ccccc1S(=O)(=O)N2CCC(C)C (stereo not drawn)
  cytotoxicity at 70.5 h: -5.31%

## O=C(c1cc[nH]n1)N1CCOCC2(C1)CN(c1ccccc1)C(=O)CO2 (stereo not drawn)
  cytotoxicity at 70.5 h: -12.1%

## CCn1ncc2c1C(COC)CN(Cc1ccsc1)C2 (stereo not drawn)
  cytotoxicity at 70.5 h: 1.82%

## COCC1c2nnn(CC3CC3)c2CCN1C(=O)c1ccnnc1 (stereo not drawn)
  cytotoxicity at 70.5 h: -6.63%

## O=C(NCC1CC1)[C@H]1CC[C@@H]2[C@@H](CCN2Cc2ccoc2)O1
  cytotoxicity at 70.5 h: -12.5%

## CC(=O)N1CCC2(CC1)CC[C@@]1(C(=O)N(C)C)CN(S(C)(=O)=O)C[C@@H]21
  cytotoxicity at 70.5 h: 27.7%

## O=C([C@H]1CCCO1)N1CCc2ncnc(NC3CC3)c2CC1
  cytotoxicity at 70.5 h: -6.76%

## Cc1ccc(CN2CCC3(C2)C(=O)N(CC(C)C)c2ccccc23)s1 (stereo not drawn)
  cytotoxicity at 70.5 h: -7.14%

## CC(=O)NCC(=O)N1C[C@H](OCc2cccnc2)[C@H]2COC[C@H]21
  cytotoxicity at 70.5 h: 3.33%

## O=C(c1ccnnc1)N1C[C@@H](OCC2CCCC2)[C@H]2OCCC[C@H]21
  cytotoxicity at 70.5 h: -3.04%

## O=C(NCc1cccc(F)c1)N1CCC2(CC(=O)N(c3ccsc3)C2)C1 (stereo not drawn)
  cytotoxicity at 70.5 h: 4.74%

## CO[C@H]1CCN(c2ccc(C)nn2)[C@H]1Cc1cnn(C)c1
  cytotoxicity at 70.5 h: 5.26%

## Cc1nc(N(C)C)nc2c1COCC21CCN(C(=O)NC(C)C)C1 (stereo not drawn)
  cytotoxicity at 70.5 h: 4.31%

## O=C(Cc1ccccc1)N1CCC2(CC(=O)N(c3ccsc3)C2)C1 (stereo not drawn)
  cytotoxicity at 70.5 h: -0.17%

## CNC(=O)[C@H]1CCS(=O)(=O)[C@@H]2CN(Cc3ccc(OC)cc3)C[C@H]12
  cytotoxicity at 70.5 h: -4.04%

## COCc1cncc2c1CCN(C(=O)c1ccc(C)o1)C2
  cytotoxicity at 70.5 h: 4.32%

## N#Cc1cccc(C(=O)N2CCc3ncc(Cn4cccn4)n3CC2)c1
  cytotoxicity at 70.5 h: 8.26%

## COCC1c2c(cnn2CC2CC2)CCN1Cc1ccc(OC)cc1 (stereo not drawn)
  cytotoxicity at 70.5 h: 49.3%

## CNC(=O)[C@H]1C[C@@H]2CN(C(=O)c3cscn3)C[C@@H]2N1S(C)(=O)=O
  cytotoxicity at 70.5 h: -1.08%

## c1ccc(CN2CC[C@H]3CO[C@H](CNc4ncccn4)[C@H]3C2)nc1
  cytotoxicity at 70.5 h: -0.901%

## CCS(=O)(=O)N1CCO[C@H]2[C@H](OCC3CCCC3)CC[C@@H]21
  cytotoxicity at 70.5 h: -13.9%

## O=S(=O)(C1CC1)N1CCO[C@H]2[C@H](OCC3CCCC3)CC[C@@H]21
  cytotoxicity at 70.5 h: 1.94%

## CCS(=O)(=O)N1Cc2nccn2CC(COc2cccnc2)C1 (stereo not drawn)
  cytotoxicity at 70.5 h: -2.17%

## COc1ncnc2c1CCN(c1cc(C(F)(F)F)ncn1)CC2
  cytotoxicity at 70.5 h: -6.15%

## CN1CC2(COCCN(C(=O)c3ccco3)C2)OCC1=O (stereo not drawn)
  cytotoxicity at 70.5 h: 6.17%

## CC(C)C(=O)N1CCc2c(CN(C)Cc3ccco3)cncc2C1
  cytotoxicity at 70.5 h: -9.73%

## CN(Cc1ccco1)Cc1cncc2c1CCN(c1ncccn1)C2
  cytotoxicity at 70.5 h: 7.69%

## c1cncc(N2CCCC3(CCN(CC4CCCO4)CC3)C2)c1 (stereo not drawn)
  cytotoxicity at 70.5 h: -7.19%

## Cc1cnc(N2Cc3nccn3CC(Cn3ncccc3=O)C2)nc1 (stereo not drawn)
  cytotoxicity at 70.5 h: -1%

## O=C(NCc1ccco1)[C@H]1C[C@@H]2CCN(c3cccc(F)c3)C[C@H]2O1
  cytotoxicity at 70.5 h: -5.03%

## O=C(c1cnccn1)N1CCCC2(CCN(Cc3ccsc3)CC2)C1
  cytotoxicity at 70.5 h: 3.52%

## CNC(=O)[C@H]1C[C@@H]2CN(C(=O)c3ccncc3)C[C@@H]2N1S(C)(=O)=O
  cytotoxicity at 70.5 h: 22.4%

## CC1c2ncc(Cn3cncn3)n2CCN1CC1CCOCC1 (stereo not drawn)
  cytotoxicity at 70.5 h: -5.6%

## O=C(c1ccco1)N1CCOCC2(C1)CN(c1cccnc1)C(=O)CO2 (stereo not drawn)
  cytotoxicity at 70.5 h: -3.1%

## O=C(NC1CC1)N1CCOCC2(CCN(Cc3cccs3)C2)C1 (stereo not drawn)
  cytotoxicity at 70.5 h: -16%

## CC(C)CN1C(=O)C2(CCN(Cc3nccs3)C2)c2ccccc21 (stereo not drawn)
  cytotoxicity at 70.5 h: -1.93%

## COCCNC(=O)[C@H]1C[C@@H]2CCN(c3nncs3)C[C@H]2O1
  cytotoxicity at 70.5 h: -4.17%

## CCCS(=O)(=O)N1CCO[C@H]2[C@H](OCc3ccccn3)CC[C@@H]21
  cytotoxicity at 70.5 h: -1.48%

## c1cnc(NC[C@@H]2CCC[C@@H]3CN(Cc4cccnc4)C[C@@H]32)nc1
  cytotoxicity at 70.5 h: -2.09%

## CN(C)C(=O)[C@@H]1CCO[C@@H]2CCN(CCc3ccccc3)C[C@@H]21
  cytotoxicity at 70.5 h: 1.43%

## Cc1ccc(N2CC[C@H]3OCC[C@@]3(C(=O)NC(C)C)C2)nn1
  cytotoxicity at 70.5 h: 1.98%

## COCC1Cn2nnc(-c3cnn(C)c3)c2CN1Cc1ccc(C)s1 (stereo not drawn)
  cytotoxicity at 70.5 h: 4.51%

## CCN1CCn2c(C)cnc2C12CCN(C(=O)c1ccc(Cl)cc1)CC2
  cytotoxicity at 70.5 h: -11.3%

## O=C(c1ccc(F)cc1)N1C[C@@H]2OCCN(c3ncccn3)[C@@H]2C1
  cytotoxicity at 70.5 h: 4.02%

## CNC(=O)[C@@H]1C[C@H]2CN(C(=O)c3ccco3)C[C@H]2N1C
  cytotoxicity at 70.5 h: 2.59%

## CC(C)CCN1CCC2(CC1)CN(C(=O)c1cnccn1)CCO2
  cytotoxicity at 70.5 h: 1.9%

## O=S(=O)(C1CC1)N1CCO[C@H]2[C@H](OCCN3CCCC3)CC[C@@H]21
  cytotoxicity at 70.5 h: 23.9%

## Cc1nc(CN2C(=O)CCC23CCN(c2ncccn2)CC3)cs1
  cytotoxicity at 70.5 h: -8.07%

## CCS(=O)(=O)N1CCO[C@H]2[C@H](OCCCn3cccn3)CC[C@@H]21
  cytotoxicity at 70.5 h: -9.45%

## CN(C)CCO[C@@H]1CC[C@H]2[C@H]1OCCN2C(=O)CCc1ccccc1
  cytotoxicity at 70.5 h: -12.8%

## O=C(CC1CC1)N1CCN(Cc2ccncc2)c2ncccc2C1
  cytotoxicity at 70.5 h: -11.9%

## Cc1nc(CN2CCc3cc(C(=O)O)c(N(C)C)nc3CC2)cs1
  cytotoxicity at 70.5 h: -5.8%

## O=C(c1ccnnc1)N1CCN(Cc2ccncc2)c2ncccc2C1
  cytotoxicity at 70.5 h: -6.87%

## c1cnn(CCCO[C@@H]2CC[C@H]3[C@H]2OCCN3CC2CC2)c1
  cytotoxicity at 70.5 h: -7.2%

## COCC(=O)N1CCN(Cc2cccnc2)c2ncccc2C1
  cytotoxicity at 70.5 h: 1.38%

## CN(Cc1cccnc1)[C@@H]1CN(C(=O)NC2CC2)[C@@H]2CCCO[C@H]12
  cytotoxicity at 70.5 h: -6.43%

## Cc1nc(CN2C(=O)CCC23CCN(Cc2cccn2C)CC3)cs1
  cytotoxicity at 70.5 h: -9.94%

## CN(Cc1cccnc1)[C@@H]1CN(C(=O)c2ccoc2)[C@@H]2CCCO[C@H]12
  cytotoxicity at 70.5 h: -11.9%

## O=C(C1CC1)N1CCN(Cc2ccncc2)c2ncccc2C1
  cytotoxicity at 70.5 h: -10.1%

## O=C(N1CCCO1)[C@@]12CCO[C@@H]1CCN(Cc1cccnc1)C2
  cytotoxicity at 70.5 h: -9.68%

## CCOCC1CN(C(=O)Cc2ccccn2)Cc2cnn(C)c21 (stereo not drawn)
  cytotoxicity at 70.5 h: -3.1%

## CC1c2ncc(CNC(=O)C3CC3)n2CCN1Cc1ccccn1 (stereo not drawn)
  cytotoxicity at 70.5 h: 0.0373%

## c1ccc(OC[C@]23COC[C@H]2CN(C2CCOCC2)C3)nc1
  cytotoxicity at 70.5 h: -9.47%

## CC(=O)N1CC(=O)N(c2cnn(C)c2)CC12CCN(Cc1ccsc1)C2 (stereo not drawn)
  cytotoxicity at 70.5 h: 21.7%

## COCCn1cc2c(n1)C(CNCc1ccco1)OCC2 (stereo not drawn)
  cytotoxicity at 70.5 h: 22.8%

## CC(C)N(C)Cc1cnc2n1CCN(CCc1ccccc1)C2
  cytotoxicity at 70.5 h: 4.09%

## COCCn1cc2c(n1)C(CNCc1ccc(F)cc1)OCC2 (stereo not drawn)
  cytotoxicity at 70.5 h: 0.574%

## Cn1cc(CN2CCC(F)(F)C3(CCN(c4cnccn4)C3)C2)cn1 (stereo not drawn)
  cytotoxicity at 70.5 h: -0.766%

## Cc1ccc(CN2CCC(F)(F)C3(CCN(c4cnccn4)C3)C2)o1 (stereo not drawn)
  cytotoxicity at 70.5 h: -1.47%

## CN1CC(=O)N(c2cccnc2)CC12CCN(C(=O)C1CCCCC1)C2 (stereo not drawn)
  cytotoxicity at 70.5 h: 36.1%

## Cc1nc(CN2CCC3(CCCN(Cc4cnn(C)c4)C3)C2=O)cs1 (stereo not drawn)
  cytotoxicity at 70.5 h: 0.731%

## COCC1c2c(cnn2CC2CC2)CCN1Cc1nccs1 (stereo not drawn)
  cytotoxicity at 70.5 h: -4.64%

## O=C(NC1CCC1)[C@@H]1C[C@@H]2CCN(Cc3ccncc3)C[C@H]2O1
  cytotoxicity at 70.5 h: -4.89%

## O=C(NCC1CCOCC1)[C@H]1C[C@@H]2CCN(Cc3ccncc3)C[C@@H]2O1
  cytotoxicity at 70.5 h: -1.08%

## Cc1ccc(CN2CCc3ncnc(-c4cccnc4)c3CC2)o1
  cytotoxicity at 70.5 h: -5.88%

## Fc1cnc(N2CCn3cc(CNc4ccccn4)nc3C2)nc1
  cytotoxicity at 70.5 h: -17.4%

## COCC(=O)N1CCC2(CC1)COCCN2CCN(C)C
  cytotoxicity at 70.5 h: -19.5%

## Cn1ccnc1CN1CC[C@H]2CO[C@H](CNc3ncccn3)[C@H]2C1
  cytotoxicity at 70.5 h: -5.82%

## O=C(c1ccncc1)N1CCN(Cc2cccnc2)c2ncccc2C1
  cytotoxicity at 70.5 h: -8.91%

## c1ccc(Cn2cc3c(n2)C(CNCc2ccco2)OCC3)nc1 (stereo not drawn)
  cytotoxicity at 70.5 h: -0.917%

## COCc1cncc2c1CCN(Cc1ccccn1)C2
  cytotoxicity at 70.5 h: -0.455%

## c1ccc(CN2CCO[C@H]3[C@H](OCCN4CCCC4)CC[C@@H]32)nc1
  cytotoxicity at 70.5 h: -7.8%
